Experimental findings from EPA's ToxValDB 9.5 (doi:10.2903/j.efsa.2013.3240) are described below.

≈ marks a conversion by molar mass, not a printed value. Where only a bound is given, the exact number is not on record here.

Series [1] has as its system Aphidius rhopalosiphi. Put plainly: LR50; higher = less toxic. Particulars: acute; duration: 48 hours; mortality.
Series [2] relates to Typhlodromus pyri. Briefly: LR50; higher = less toxic. Particulars: acute; duration: 7 days; mortality.
Series [3] has as its system Rattus norvegicus.
In series [4] the test system is Colinus virginianus. Particulars: for NOEL: reproduction developmental, reproduction.
The subject of series [5] is Neomysis kadiakensis.
In series [6] the test system is Apis mellifera. To be noted: acute; duration: 48 hours; oral; unspecified; mortality.
Series [7] relates to Bibionidae. To be noted: chronic/long-term; duration: 28 days; other.
Series [8] has as its system Oncorhynchus mykiss. To be noted: acute; duration: 96 hours; mortality.
Series [9] deals with Tagia sp.

What is called NOAEL is the highest tested level that showed no adverse finding.

Regarding `FC(F)(F)c1ccc(OCCCOc2c(Cl)cc(OCC=C(Cl)Cl)cc2Cl)nc1` [Pyridalyl], the LR50 in series [1] was 458 g/ha; in series [2], more than 600 g/ha. Also, the LD50 in series [3] (acute, oral, mortality) was more than 5000 mg/kg-day; in series [4] (acute, oral, mortality) it was more than 2250 mg/kg-day; in [6] it was more than 100 µg/piece. Also, the NOAEL came to 3.4 mg/kg-day in series [3] (chronic, duration: 2 years, body weight); 2.8 mg/kg-day in series [3] (reproduction developmental, body weight); 5.6 mg/kg-day in series [3] (subchronic, duration: 13 weeks, oral, hematological). Besides, the LC50 in [4] (acute, oral, diet, mortality) is 334 mg/kg-day; in series [5] (acute, duration: 96 hours, mortality), 1 µg/L (≈ 0.00204 µM); in series [8], 0.5 mg/L (≈ 1.02 µM); in series [9] (acute, duration: 14 days, mortality), more than 1000 mg/kg. The values for the NOEL in series [4] (F) and in series [4] were 11.9 mg/kg-day and 12.6 mg/kg-day, respectively. The NOEC amounted to 0.45 µg/L in [5] (chronic/long-term, duration: 28 days, reproduction); 12 µg/L in series [7]; 63 mg/kg in [9] (chronic/long-term, duration: 56 days, reproduction).
